“Also recorded” adds a separate entry of the source. Read-outs that look alike come from different tables or passages of the source. Blank lines part the entries; values can stand above or below the compound they belong to.
Legend:
in vitro = conditions: human; for Papp A→B at 180 min, 25 µg/mL (extract) / Papp B→A at 180 min, 25 µg/mL (extract): Caco-2; for efflux ratio at 180 min, 25 µg/mL: Caco-2, Efflux ratio P BA/P AB
[1] = cited from earlier work
Caco-2 cell monolayer [2] = conditions: human
[3] = Bidirectional transport across the Caco-2 cell monolayer (LC/MS/MS); conditions: human; for efflux ratio at 180 min, 25 µg/mL / efflux ratio at 180 min, 10 µM: Caco-2, Efflux ratio P BA/P AB; for efflux ratio at 180 min, 25 µg/mL: in A. cinnamomea extract (25 µg/mL); for efflux ratio at 180 min, 10 µM: as single compounds
Caco-2 cell monolayer [4] = experiment: as above; conditions: for Efflux ratio P BA/P AB: as single compounds; for Efflux ratio P BA/P AB / permeability through the Caco-2 cell layer: 10 µM; for decrease of PBA in extract compared to the single form: extract versus single compound; for P app P BA: BL to AP; for permeability through the Caco-2 cell layer: pure compounds
Caco-2 cultures = experiment: MTS assay on Caco-2 cultures; type: cell-based, human; conditions: 10 µM
Method: The pure compounds 5, 6, 10, 13 and 14 were added into the Caco-2 cultures at a final concentration of 10 µM.

[5] = Solubility (stated in words); conditions: both in the extract and single forms (13 and 14)
[6] = Leakage marker sodium fluorescein transport, AP to BL, Caco-2 monolayer integrity; type: in vitro ADME; conditions: human
Method: The integrity of cell monolayers was also assessed by the transport of the leakage marker sodium fluorescein. On day 21, the Caco-2 monolayers were rinsed twice with pre-warmed HBSS and were then incubated with the same solution at 37 °C for 30 min, on a shaker at 50 rpm. The fluorescein was pre-dissolved in 1 mM NaOH/H2O (1:10, v/v), and then diluted to 1 mM with an appropriate volume of HBSS. The sodium fluorescein and blank HBSS were added to the AP (0.5 mL) and BL side (1.5 mL), respectively. At 30, 60, 90, and 120 min, each 0.3 mL of the solution from BL side was collected, and replaced with an equal volume of HBSS. The sodium fluorescein intensity was determined with a Hitachi F-4500 fluorometer (excitation wavelength 490 nm, emission 525 nm).

[7] = in A. cinnamomea extract (25 µg/mL)

SMILES: C=C(CC[C@@H](C)[C@H]1CC[C@H]2C3=C(C(=O)C[C@]12C)[C@@]1(C)CCC(=O)[C@@H](C)[C@@H]1CC3)C(C)C(=O)O (mixture of isomers) [compound 11, (R/S)-antcin A]
- Papp A→B at 180 min, 25 µg/mL (extract) (in vitro): 79.2 ± 4.2 ×10⁻⁶ cm/s
- Papp B→A at 180 min, 25 µg/mL (extract) (in vitro): 47.9 ± 2.3 ×10⁻⁶ cm/s
- efflux ratio at 180 min, 25 µg/mL (in vitro): 0.6

SMILES: C=C(CC[C@@H](C)[C@H]1CC[C@H]2C3=C(C(=O)C[C@]12C)[C@@]1(C)CC[C@@H](O)[C@](C)(O)[C@@H]1C[C@@H]3O)[C@H](C)C(=O)O [compound 1, 25S-antcin K]
- Papp A→B at 180 min, 25 µg/mL (extract) (in vitro): 78 ± 8.6 ×10⁻⁶ cm/s
- Papp B→A at 180 min, 25 µg/mL (extract) (in vitro): 53.2 ± 3.1 ×10⁻⁶ cm/s
- efflux ratio at 180 min, 25 µg/mL (in vitro): 0.68
- plasma exposure ([1]; rat, in vivo): major plasma-exposed components

SMILES: C=C(CC[C@@H](C)[C@H]1CC[C@H]2C3=C(C(=O)C[C@]12C)[C@@]1(C)CC[C@@H](O)[C@](C)(O)[C@@H]1C[C@@H]3O)[C@@H](C)C(=O)O [compound 2, 25R-antcin K]
- Papp A→B at 180 min, 25 µg/mL (extract) (in vitro): 57.4 ± 2.7 ×10⁻⁶ cm/s
- Papp B→A at 180 min, 25 µg/mL (extract) (in vitro): 44.8 ± 3 ×10⁻⁶ cm/s
- efflux ratio at 180 min, 25 µg/mL (in vitro): 0.78
- transport rate (Caco-2 cell monolayer [2]; Caco-2, 25 µg/mL): 112%
- plasma exposure ([1]; rat, in vivo): major plasma-exposed components

SMILES: C=C(CC[C@@H](C)[C@H]1CC[C@H]2C3=C(C(=O)C[C@]12C)[C@@]1(C)CCC(=O)[C@@H](C)[C@@H]1C[C@@H]3O)[C@H](C)C(=O)O [compound 3, 25S-antcin C]
- Papp A→B at 180 min, 25 µg/mL (extract) ([3]; Caco-2): 68.2 ± 5.9 ×10⁻⁶ cm/s
- Papp B→A at 180 min, 25 µg/mL (extract) ([3]; Caco-2): 49.9 ± 2.9 ×10⁻⁶ cm/s
- efflux ratio at 180 min, 25 µg/mL [3]: 0.73
- plasma exposure ([1]; rats, after A. cinnamomea): much lower plasma concentrations

SMILES: C=C(CC[C@@H](C)[C@H]1CC[C@H]2C3=C(C(=O)C[C@]12C)[C@@]1(C)CCC(=O)[C@@H](C)[C@@H]1C[C@@H]3O)[C@@H](C)C(=O)O [compound 4, 25R-antcin C]
- Papp A→B at 180 min, 25 µg/mL (extract) ([3]; Caco-2): 74.1 ± 19 ×10⁻⁶ cm/s
- Papp B→A at 180 min, 25 µg/mL (extract) ([3]; Caco-2): 51.3 ± 2.7 ×10⁻⁶ cm/s
- efflux ratio at 180 min, 25 µg/mL [3]: 0.69
- plasma exposure ([1]; rats, after A. cinnamomea): much lower plasma concentrations

SMILES: C=C(CC[C@@H](C)[C@H]1CC[C@H]2C3=C(C(=O)[C@H](O)[C@]12C)[C@@]1(C)CC[C@@H](O)[C@@H](C)[C@@H]1CC3=O)[C@@H](C)C(=O)O [compound 5, 25R-antcin H]
- Papp A→B at 180 min, 10 µM ([3]; Caco-2): 37.2 ± 4.4 ×10⁻⁶ cm/s
- Papp A→B at 180 min, 25 µg/mL (extract) ([3]; Caco-2): 39.5 ± 6.4 ×10⁻⁶ cm/s
- Papp B→A at 180 min, 10 µM ([3]; Caco-2): 84.1 ± 13.5 ×10⁻⁶ cm/s
- Papp B→A at 180 min, 25 µg/mL (extract) ([3]; Caco-2): 34.7 ± 3.6 ×10⁻⁶ cm/s
- efflux ratio at 180 min, 10 µM [3]: > 2
- efflux ratio at 180 min, 25 µg/mL [3]: 0.88
- Efflux ratio P BA/P AB (Caco-2 cell monolayer [4]): 2.26
- decrease of PBA in extract compared to the single form (Caco-2 cell monolayer [4]): 50–60%
- P app P BA (Caco-2 cell monolayer [4]; [7]): 3.0–3.8 ×10^−5 cm/s
- permeability through the Caco-2 cell layer (Caco-2 cell monolayer [4]): could readily pass through; also recorded: high permeability
- plasma exposure ([1]; rats, after A. cinnamomea): major plasma-exposed components
- toxicity to the cells (MTS assay) (Caco-2 cultures): non-toxic

SMILES: C=C(CC[C@@H](C)[C@H]1CC[C@H]2C3=C(C(=O)[C@H](O)[C@]12C)[C@@]1(C)CC[C@@H](O)[C@@H](C)[C@@H]1CC3=O)[C@H](C)C(=O)O [compound 6, 25S-antcin H]
- Papp A→B at 180 min, 10 µM ([3]; Caco-2): 31.4 ± 5.6 ×10⁻⁶ cm/s
- Papp B→A at 180 min, 10 µM ([3]; Caco-2): 92 ± 13.4 ×10⁻⁶ cm/s
- Papp B→A at 180 min, 25 µg/mL (extract) ([3]; Caco-2): 30.5 ± 3.8 ×10⁻⁶ cm/s
- efflux ratio at 180 min, 10 µM [3]: > 2
- efflux ratio at 180 min, 25 µg/mL [3]: 0.99
- decrease of PBA in extract compared to the single form (Caco-2 cell monolayer [4]): 50–60%
- P app P AB (Caco-2 cell monolayer [4]; in A. cinnamomea extract (25 µg/mL), AP to BL): 3.18 ± 0.34 ×10^−5 cm/s
- P app P BA (Caco-2 cell monolayer [4]; [7]): 3.0–3.8 ×10^−5 cm/s
- permeability through the Caco-2 cell layer (Caco-2 cell monolayer [4]): could readily pass through; also recorded: high permeability
- plasma exposure ([1]; rats, after A. cinnamomea): major plasma-exposed components
- toxicity to the cells (MTS assay) (Caco-2 cultures): non-toxic

SMILES: CC(C)=CCC[C@@H](C(=O)O)[C@H]1C[C@H](O)[C@@]2(C)C3=CC[C@H]4C(C)(C)[C@H](O)CC[C@]4(C)C3=CC[C@]12C [compound 7, 3β,15α-dihydroxylanosta-7,9(11),24-triene-21-oic acid]
- Papp A→B at 180 min, 25 µg/mL (extract) (in vitro): 37.4 ± 4.3 ×10⁻⁶ cm/s
- Papp B→A at 180 min, 25 µg/mL (extract) (in vitro): 35.7 ± 3.8 ×10⁻⁶ cm/s
- efflux ratio at 180 min, 25 µg/mL (in vitro): 0.96
- transport rate (Caco-2 cell monolayer [2]; Caco-2, 180 min, 25 µg/mL): 38.8%

SMILES: C=C(CC[C@@H](C(=O)O)[C@H]1C[C@H](O)[C@@]2(C)C3=CC[C@H]4C(C)(C)[C@@H](O)CC[C@]4(C)C3=CC[C@]12C)C(C)C [compound 8, dehydrosulphurenic acid]
- permeability (Caco-2 cell monolayer [4]; both in the extract and single forms (13 and 14)): very low
- permeability (Caco-2 cell monolayer [4]; in A. cinnamomea extract): poor permeability
- solubility [5]: very low

SMILES: C=C(CC[C@@H](C)[C@H]1CC[C@H]2C3=C(C(=O)C[C@]12C)[C@@]1(C)CCC(=O)[C@@H](C)[C@@H]1CC3=O)[C@H](C)C(=O)O [compound 9, 25S-antcin B]
- Papp A→B at 180 min, 25 µg/mL (extract) ([3]; Caco-2): 26.5 ± 5.3 ×10⁻⁶ cm/s
- Papp B→A at 180 min, 25 µg/mL (extract) ([3]; Caco-2): 27.6 ± 2.7 ×10⁻⁶ cm/s
- efflux ratio at 180 min, 25 µg/mL [3]: 1.04
- plasma exposure ([1]; rats, after A. cinnamomea): much lower plasma concentrations

SMILES: C=C(CC[C@@H](C)[C@H]1CC[C@H]2C3=C(C(=O)C[C@]12C)[C@@]1(C)CCC(=O)[C@@H](C)[C@@H]1CC3=O)[C@@H](C)C(=O)O [compound 10, 25R-antcin B]
- Papp A→B at 180 min, 10 µM ([3]; Caco-2): 28.3 ± 4.3 ×10⁻⁶ cm/s
- Papp A→B at 180 min, 25 µg/mL (extract) ([3]; Caco-2): 41.1 ± 9.2 ×10⁻⁶ cm/s
- Papp B→A at 180 min, 10 µM ([3]; Caco-2): 58.5 ± 5.8 ×10⁻⁶ cm/s
- Papp B→A at 180 min, 25 µg/mL (extract) ([3]; Caco-2): 38.6 ± 3.2 ×10⁻⁶ cm/s
- efflux ratio at 180 min, 10 µM [3]: > 2
- efflux ratio at 180 min, 25 µg/mL [3]: 0.94
- Efflux ratio P BA/P AB (Caco-2 cell monolayer [4]): 2.07
- decrease of PBA in extract compared to the single form (Caco-2 cell monolayer [4]): 50–60%
- P app P BA (Caco-2 cell monolayer [4]; [7]): 3.0–3.8 ×10^−5 cm/s
- permeability through the Caco-2 cell layer (Caco-2 cell monolayer [4]): could readily pass through; also recorded: high permeability
- metabolites detected in the AP side (Caco-2 cell monolayer [4]; single compound 10 µM, 120 min (Fig. S2)): two hydrogenated metabolites
- plasma exposure ([1]; rats, after A. cinnamomea): much lower plasma concentrations
- toxicity to the cells (MTS assay) (Caco-2 cultures): non-toxic

- Papp A→B at 30 min ([3]; Caco-2): 35.1 ± 10.6 ×10⁻⁶ cm/s
- Papp A→B at 60 min ([3]; Caco-2): 37.6 ± 4.5 ×10⁻⁶ cm/s
- Papp A→B at 90 min ([3]; Caco-2): 34.3 ± 4.6 ×10⁻⁶ cm/s
- Papp A→B at 120 min ([3]; Caco-2): 38.1 ± 3.4 ×10⁻⁶ cm/s
- PAB value of marker compound (Caco-2 cell monolayer [4]; marker compound, AP to BL (Table S5)): 3.81 ± 0.34 × 10^−5 cm/s
SMILES: CC(C)NCC(O)COc1cccc2ccccc12 (centres unmarked) [propranolol, reference compound]

- Papp A→B at 1 mM ([6]; 1 mM, day 21 monolayer, read-out: Papp value AP to BL side): < 1 ×10⁻⁶ cm/s
- Papp A→B at 30 min, 1 mM ([6]; 30 min): 0.798 ± 0.199 ×10⁻⁶ cm/s
- Papp A→B at 60 min, 1 mM ([6]; 60 min): 0.771 ± 0.144 ×10⁻⁶ cm/s
- Papp A→B at 90 min, 1 mM ([6]; 90 min): 0.765 ± 0.14 ×10⁻⁶ cm/s
- Papp A→B at 120 min, 1 mM ([6]; 120 min): 0.708 ± 0.298 ×10⁻⁶ cm/s
SMILES: O=C1OC2(c3ccc(O)cc3Oc3cc(O)ccc32)c2ccccc21 [sodium fluorescein]

From article PMC4607679, “Intestinal Absorption of Ergostane and Lanostane Triterpenoids from Antrodia cinnamomea Using Caco-2 Cell Monolayer Model” (Natural Products and Bioprospecting, 2015)
